Read-outs that look alike come from different tables or passages of the source.
System: iCell cardiomyocytes (human iPSC-derived cardiomyocytes)
Assay: Intracellular Ca2+ flux / beating parameters in iCell cardiomyocytes (FLIPR tetra), 90 min or 24 h
Format: cell-based
Details: for activity at 0.01 µM / activity at 0.1 µM / activity at 1 µM / activity at 10 µM / activity at 100 µM: Homo sapiens, Cardiomyocyte, 0.00 µM = 100.00; for activity at 0.1 µM: 0.10 µM
Procedure, shortened: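 Gelatin-plated iCell cardiomyocytes (5,000/well) were dye-loaded for 2 h at 37 °C, then exposed for 90 min or 24 h to PCBs/metabolites (5× plates at 0.05–500 µM; 0.5% DMSO final) in triplicate. Ca2+ flux was read for 100 s at 8 Hz and 37 °C. Peak height, frequency, spacing CV and decay/rise ratio were vehicle-normalized and fitted with a four-parameter logistic model, with POD set at 1 SD of vehicle.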

[1] = 1.5 h, read-out: cm.amp.avg.90min
[2] = 1.5 h, read-out: cm.amp.cv.90min
[3] = 1.5 h, read-out: cm.decay.rise.90min
[4] = 1.5 h, read-out: cm.spacing.cv.90min
[5] = 24 h, read-out: cm.amp.avg.24hrs
[6] = 24 h, read-out: cm.amp.cv.24hrs
[7] = 24 h, read-out: cm.decay.rise.24hrs
[8] = 24 h, read-out: cm.spacing.cv.24hrs

`COc1ccc(-c2ccc(Cl)cc2)cc1` [4'-OMe PCB3] was tested, and the activity at 0.01 µM [1] was 96.9%, the activity at 0.01 µM [2] was 88.9% and the activity at 0.01 µM (1.5 h, read-out: cm.bpm.90min) was 103%. For the same molecule, the activity at 0.01 µM [3] was 99.4%, the activity at 0.01 µM [4] was 117% and the activity at 0.1 µM [1] was 93.5%. For the same molecule, the activity at 0.1 µM [2] was 102%, the activity at 0.1 µM (1.5 h, read-out: cm.bpm.90min) was 100% and the activity at 0.1 µM [3] was 102%. For the same molecule, the activity at 0.1 µM [4] was 99.4%, the activity at 1 µM [1] was 106% and the activity at 1 µM [2] was 117%. The activity at 1 µM (1.5 h, read-out: cm.bpm.90min) was 96.5%, the activity at 1 µM [3] was 95% and the activity at 1 µM [4] was 92%. For the same molecule, the activity at 10 µM [1] was 103%, the activity at 10 µM [2] was 96% and the activity at 10 µM (1.5 h, read-out: cm.bpm.90min) was 107%. The activity at 10 µM [3] was 95.2%, the activity at 10 µM [4] was 96.4% and the activity at 100 µM [1] was 83.2%. For the same molecule, the activity at 100 µM [2] was 175%, the activity at 100 µM (1.5 h, read-out: cm.bpm.90min) was 208% and the activity at 100 µM [3] was 94.6%. The activity at 100 µM [4] was 140%, the activity at 0.01 µM [5] was 135% and the activity at 0.01 µM [6] was 92.2%. The activity at 0.01 µM (24 h, read-out: cm.bpm.24hrs) was 111%, the activity at 0.01 µM [7] was 98% and the activity at 0.01 µM [8] was 116%. The activity at 0.1 µM [5] was 30.6%, the activity at 0.1 µM [6] was 60.1% and the activity at 0.1 µM (24 h, read-out: cm.bpm.24hrs) was 50.6%. It also gave an activity at 0.1 µM [7] of 49%, an activity at 0.1 µM [8] of 49.7% and an activity at 1 µM [5] of 81.2%. The activity at 1 µM [6] was 110%, the activity at 1 µM (24 h, read-out: cm.bpm.24hrs) was 95.5% and the activity at 1 µM [7] was 98.7%. For the same molecule, the activity at 1 µM [8] was 85.6%, the activity at 10 µM [5] was 94.7% and the activity at 10 µM [6] was 93.1%. The activity at 10 µM (24 h, read-out: cm.bpm.24hrs) was 119%, the activity at 10 µM [7] was 90.5% and the activity at 10 µM [8] was 112%. It also gave an activity at 100 µM [5] of 30.7%, an activity at 100 µM [6] of 58% and an activity at 100 µM (24 h, read-out: cm.bpm.24hrs) of 81.2%. It also gave an activity at 100 µM [7] of 38.5% and an activity at 100 µM [8] of 76.1%.
With `Oc1cc(Cl)cc(-c2cccc(Cl)c2)c1` [5-OH-PCB 11] the “effect on Ca2+ flux” value (iPSC-CM, 100 μM, because of loss of cell viability) was “complete block of Ca^2+ flux”.

Source: PMC7377239, “Cardiovascular Effects of Polychlorinated Biphenyls and Their Major Metabolites” (Environmental Health Perspectives, 2020)
